Assay results reported in patent US5134168A, “Phenoxy and phenylthio, amino substituted benzocycloalkane derivatives in the treatment and prevention of drug-resistant protozoal infections” (Merrell Dow Pharmaceuticals Inc., priority 1991, dated 1992).

Key:
[1] = tested on: P. falciparum (FCR3); test: Enhancement of chloroquine potency: [3H]-hypoxanthine incorporation into chloroquine-resistant P. falciparum (FCR3) in vitro; format: cell-based, Plasmodium falciparum; details: chloroquine IC50 with compound at 200 ng/ml as percent of chloroquine-alone IC50
[2] = tested on: chloroquine-resistant P. falciparum (FCR3); test: Isobologram analysis of synergism with chloroquine, hypoxanthine incorporation (FIG. 1); format: cell-based, Plasmodium falciparum; details: IC50 for hypoxanthine incorporation
Method: FIG. 1 illustrates the synergism of 1-(3,4-dichloro-phenoxy)-2,3-dihydro-N,N-dimethyl-1H-Indene-2-methanamine and chloroquine against chloroquine-resistant P. falciparum (FCR3). Isobologram analysis was carried out according to the method of Martin, et al., (1987) Science 235, 899-901 and Berenbaum, (1978) Journal of Infectious Diseases 137, 122-130. […] The X-axis is the IC50 concentration of drug which inhibits hypoxanthine incorporation by 50%) of chloroquine in the absence or presence of 1-(3,4-dichlorophenoxy)-2,3-dihydro-N,N-dimethyl-1H-Indene-2-methanamine while the Y-axis is the IC50 for 1-(3,4-dichlorophenoxy)-2,3-dihydro-N,N-dimethyl-1H-Indene-2-methanamine in the absence or presence of chloroquine.
P. falciparum (clone D6, chloroquine-sensitive; strain FCR3, chloroquine-resistant; and clone W2, multidrug-resistant) was grown in vitro by the method of Trager and Jensen, (1976) Science 193, 673-675.

[3] = tested on: P. falciparum; details: recently reported; by interfering with riboflavin metabolism; cited from earlier work

Structure (SMILES)	Percent of IC50 of Chloroquine Alone [1]	other results
CN(C)C[C@H]1Cc2ccccc2[C@H]1Sc1ccccc1.O=C(O)C(=O)O (relative stereo) [1 0 0 -- --CH2 -- CH3 CH3 S cis, cis-2,3-dihydro-N,N-dimethyl-1-(phenylthio)-1H-indene-2-methanamine, ethanedioate]	14%	
CNC[C@@H]1Cc2ccccc2[C@@H]1Oc1ccccc1C(F)(F)F (relative stereo) [1 0 1 O--CF3 --CH2 -- CH3 H O cis, CIS-2,3-dihydro-N-methyl-1-(2-trifluoromethylphenoxy)-H-indene-2-methanamine ethanedioate (1:1)]	22%	
CNC[C@H]1Cc2ccccc2[C@H]1Oc1ccccc1OC (relative stereo) [1 0 1 O--OCH3 --CH2 -- CH3 H O --, cis-2,3-dihydro-1-(2-methoxyphenoxy)-N-methyl-1H-indene-2-methanamine]	13%	
CN(C)C[C@@H]1Cc2ccccc2[C@@H]1Oc1ccc(Br)cc1 (relative stereo) [1 0 1 p-Br --CH2 -- CH3 CH3 O cis, CIS-1-(4-romophenoxy)-2,3-dihydro-N,N-dimethyl-1H-indene-2-methanamine ethanedioate]	68%	
CN(C)C[C@H]1Cc2ccccc2[C@H]1Oc1ccc(C(F)(F)F)cc1.Cl (relative stereo) [1 0 1 p-CF3 --CH2 -- CH3 CH3 O cis, cis-2,3-dihydro-N,N-dimethyl-1-[4-(trifluoromethyl)-phenoxy]-1H-indene-2-methanamine hydrochloride]	55%	
CN(C)C[C@H]1Cc2ccccc2[C@H]1Oc1ccc2c(c1)OCO2.O=C(O)C(=O)O (relative stereo) [1 0 2 --OCH2 O-- --CH2 -- CH3 CH3 O cis, CIS 1-(1,3-benzodioxol-5-yloxy)-2,3-dihydro-N,N-dimethyl-1H-indene-2-methanamine ethanedioate (1:1)]	25%	
CN(C)C[C@H]1Cc2ccccc2[C@@H]1Oc1ccc(Cl)c(Cl)c1 (relative stereo) [1 0 2 m,p-(Cl)2 --CH2 -- CH3 CH3 O trans]	43%	
CN(C)C[C@@H]1Cc2ccccc2[C@H]1Oc1ccc2c(c1)OCO2.O=C(O)C(=O)O (relative stereo) [TRANS 1-(1,3-benzodioxol-5-yloxy)-2,3-dihydro-N,N-dimethyl-1H-indene-2-methanamine ethanedioate (1:1)]	75%	
CN(C)CC1Cc2ccccc2C1Oc1ccccc1 (stereo not drawn) [1 0 0 -- --CH2 -- CH3 CH3 O --, 2,3-dihydro-N,N-dimethyl-1-phenoxy-1H-indene-2-methanamine]	10%	
CN(C)CC1Cc2ccccc2C1Oc1ccc(Cl)c(Cl)c1 (stereo not drawn) [1-(3,4-dichlorophenoxy)-2,3-dihydro-N,N-dimethyl-1H-Indene-2-methanamine]		synergism of the combination with chloroquine [2]: highly synergistic
CN(C)CCC=C1c2ccccc2CCc2ccccc21 [amitryptyline]		P. falciparum growth [3]: suppress P. falciparum growth
CN(C)CCCN1c2ccccc2CCc2ccccc21 [imipramine]		P. falciparum growth [3]: suppress P. falciparum growth
